Reference: ChEMBL document CHEMBL3638434, “1H-pyrrolo[2,3 b]-pyridine derivatives” (2014)

Target: T1, 3-phosphoinositide-dependent protein kinase 1 (Homo sapiens, UniProt O15530)
T1 sequence (O15530 whole entry): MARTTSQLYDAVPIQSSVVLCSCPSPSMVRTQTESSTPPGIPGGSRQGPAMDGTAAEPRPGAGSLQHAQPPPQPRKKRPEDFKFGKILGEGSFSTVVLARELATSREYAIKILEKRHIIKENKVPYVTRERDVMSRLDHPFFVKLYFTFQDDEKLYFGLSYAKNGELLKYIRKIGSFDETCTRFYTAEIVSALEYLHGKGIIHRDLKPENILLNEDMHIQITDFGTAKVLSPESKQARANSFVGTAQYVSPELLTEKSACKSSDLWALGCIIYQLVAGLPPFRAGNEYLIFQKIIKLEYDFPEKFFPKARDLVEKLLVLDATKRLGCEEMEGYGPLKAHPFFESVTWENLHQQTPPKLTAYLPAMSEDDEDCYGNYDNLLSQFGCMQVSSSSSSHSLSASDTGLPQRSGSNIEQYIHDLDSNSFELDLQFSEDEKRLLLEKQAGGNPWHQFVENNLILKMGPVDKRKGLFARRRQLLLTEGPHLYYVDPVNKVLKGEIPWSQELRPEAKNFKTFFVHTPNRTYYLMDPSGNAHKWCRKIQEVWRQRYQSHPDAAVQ
Assay: Inhibition Assay: The compound inhibits the target protein in the enzymatic PDK1 inhibition assay.

| IC50 | Compound |
| --- | --- |
| 190 nM | CN(c1cccc(F)c1)c1cc(-c2c[nH]c3ncc(-c4cnn(C)c4)cc23)ncn1 |
| 7.9 nM | Cn1cc(-c2cnc3[nH]cc(-c4cc(N(CCC#N)c5ccccc5)nc(N)n4)c3c2)cn1 |
